# Reference: patent US20170316147A1, “METHODS AND SYSTEMS FOR IDENTIFYING LIGAND-PROTEIN BINDING SITES” (King Abdullah University of Science and Technology, priority 2014, published 2017)
# Entries after “also recorded” stand apart in the source; their conditions may differ. No end group written: not given here.
# B1: fluorescence-labeled peptide QDASTKKLSECLRRIGDELDSNMELQRMIAD corresponding to Bax-BH3 (peptide)
# peptide: QDASTKKLSECLRRIGDELDSNMELQRMIAD
# modifications: also: fluorescein label, position not given here
# notes: Bought from Genscript; also called Bax-BH3 peptide
# B2: scrambled LD4 peptide (LSDAMETSSLRDALE, a scrambled version of the Bcl-2 ligand LD4) (peptide)
# peptide: LSDAMETSSLRDALE
# notes: Negative control peptide, bought from Genscript; also called Scramble LD4 peptide
# What was measured:
# Bcl-2 [1] = biological target: T1, Bcl-2 (Homo sapiens, UniProt P10415, A37T/A38E/A42E/A43T/DEL46-86/G36R/G41E/P39A/P44E/P88R/P90T/S87E/V35N/V89E); assay: Fluorescence anisotropy competition: CoA against Bax-BH3 bound to Bcl-2; assay type: binding; settings: 20 nM Bax-BH3, 400 nM Bcl-2, CoA up to 4.7 mM; listed as CoA
# T1 construct: made in house
# Text: Fluorescence anisotropy measurements.
# Target sequence in this assay (P10415 with tags, fused parts or gaps with the stated changes, one chain of several): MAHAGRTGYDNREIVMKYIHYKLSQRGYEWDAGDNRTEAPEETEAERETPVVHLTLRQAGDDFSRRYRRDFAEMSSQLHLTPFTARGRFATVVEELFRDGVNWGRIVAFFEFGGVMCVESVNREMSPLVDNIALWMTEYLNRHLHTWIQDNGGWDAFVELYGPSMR
# Bcl-2 [2] = biological target: T1, Bcl-2; assay: Differential static light scattering (aggregation temperature) of Bcl-2; assay type: binding
# Description: We also tested direct binding of CoA to recombinant Bcl-2 (see supporting information file PredTargets). Bcl-2, the founding member of the Bcl-2 family of regulator proteins that regulate cell death, is an important anti-apoptotic protein and is classified as an oncogene. Using differential static light scattering (DSLS) we observed that the aggregation temperature Tagg for 0.5 mg/ml apo-Bcl-2 was ˜57° C. […] The predicted CoA binding pocket by iDTP was adjacent to the Bax-BH binding site and without significant overlap (FIG. 5(b)). The presence of CoA was therefore not expected to displace bound Bax-BH3. […] Thus, our in vitro binding experiments strongly supported our computational binding predictions.
# DSLS measured by the Stargazer system (Harbinger Biotechnology and Engineering Corporation, Markham, Canada) was used to assess the thermal stability of Bcl-2 in the absence or presence of CoA and control ligands. DSLS measures the specific aggregation temperature, Tagg at which a protein aggregates as a result of heat denaturing. Thus, DSLS provides the thermal stability of proteins, which is expected to vary in presence of ligands. Bcl-2 at 0.5 mg/mL was overlaid with mineral oil in a clear bottom 384-well black plate (Corning) were heated from 20 to 85° C. at 1° C./min and the light scattering was detected by a CCD camera every 0.5° C. in the absence or presence of varying concentrations of CoA, yielding the difference in aggregation temperature at a particular CoA concentration from apo Bc1-2 ΔTagg. Data were normalized and Kd values were calculated by plotting ΔTagg against the CoA concentration. Resulting data were fitted using a binding saturation single site model (GraphPad).
# Differential static light scattering (DSLS). DSLS measured by the Stargazer system (Harbinger Biotechnology and Engineering Corporation, Markham, Canada) was used to assess the thermal stability of Bcl-2 in the presence or absence of CoA and to control ligands. DSLS measures the specific aggregation temperature, Tagg, at which a protein aggregates as a result of heat denaturing. Thus, DSLS provides proteins with thermal stability, which is expected to vary in the presence of ligands. Bcl-2 at 0.5 mg/mL was overlaid with mineral oil in a clear bottom 384-well black plate (Corning), and heated from 20 to 85° C. at 1° C./min; light scattering was detected by a CCD camera every 0.5° C. in the presence or absence of varying concentrations of CoA, yielding the difference in aggregation temperature at a particular CoA concentration from apo Bcl-2 ΔTagg. Data were normalized and Kd values were calculated by plotting ΔTagg against the CoA concentration. Resulting data were fitted using a binding-saturation single-site model (GraphPad).
# Target sequence in this assay (P10415 with tags, fused parts or gaps with the stated changes): as the sequence (P10415 with tags, fused parts or gaps with the stated changes, one chain of several) above
# hPPARγ-LBD [3] = biological target: T2, hPPARγ-LBD (Homo sapiens, UniProt P37231); assay: Differential scanning fluorimetry (thermal shift) on hPPARγ-LBD; assay type: binding; parameters: human PPARγ (amino acids Glu196-Tyr477); made in house; settings: for Tm of hPPARγ-LBD: 5 μM hPPARg
# T2 sequence (P37231 196-477 isoform P37231-2): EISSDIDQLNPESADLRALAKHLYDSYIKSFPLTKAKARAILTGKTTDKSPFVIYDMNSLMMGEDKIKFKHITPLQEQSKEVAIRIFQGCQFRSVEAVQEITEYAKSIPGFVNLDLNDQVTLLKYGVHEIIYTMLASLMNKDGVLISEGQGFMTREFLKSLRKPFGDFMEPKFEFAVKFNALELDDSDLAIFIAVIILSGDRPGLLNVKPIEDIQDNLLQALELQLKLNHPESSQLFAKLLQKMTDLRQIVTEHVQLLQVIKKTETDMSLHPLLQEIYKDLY
# Text: PPARγ is a nuclear hormone receptor regulating numerous biological functions including adipogenesis and cell differentiation. Its dysregulation is involved in the onset of diabetes and obesity. The interaction of the ligand binding domain (LBD) of human PPARγ (hPPARγ-LBD) with CoA is one of our most promising predictions, because this interaction achieved a high iDTP score and statistically significant co-citation index (SI Table 3). The pocket predicted by iDTP to bind CoA overlaps with the known ligand binding site of this receptor.
# (§1) This method measures the protein unfolding based on fluorescence detection of the denatured form of the protein [59]. […] The plates were sealed with an optical sealing tape (Bio-Rad) and heated in an Mx3005P Q-PCR system (Stratagene) from 25 to 95° C. at 1° C. intervals. Fluorescence changes in the wells were monitored with a photomultiplier tube. The wavelengths for excitation and emission were 545 nm and 568 nm, respectively. The melting temperatures, Tm, were obtained by fitting the fluorescence data with a Boltzmann model using the GraphPad Prism software.
# as §1, with “Differential scanning fluorimetry (DSF or Thermofluor). This” for “This”, “measures” for “measures the”, “(Pantoliano et al., 2001).” for “[59].”, “25° C.” for “25”, “using” for “using the”
# hPPARγ-LBD [4] = biological target: T2, hPPARγ-LBD; assay: Fluorescence anisotropy titrations of fluorescein-labelled coactivator/corepressor peptides with hPPARγ-LBD in presence of ligand
# Description: Next, we used fluorescence anisotropy (FA) to characterize the interaction between hPPARγ-LBD and its natural partner proteins upon CoA binding. We measured the dissociation constant (Kd) between hPPARγ-LBD and fluorescein-labeled peptides derived from a coactivator protein (PGC1) and two corepressor proteins (NCoR and SMRT). […] If an increasing molar excess of the ligand has an increasing influence on the Kd of the fluorescently labeled coactivator/corepressor, then we can infer ligand binding, because the ligand disturbs binding to coactivators or corepressors.
# Binding affinities of the fluorescent peptides for hPPARγ LBD were measured in the presence or absence of ligands using a Safire2 microplate reader (TECAN). For the fluorescence-labeled peptides, excitation wavelength was set at 470 nm and emission measured at 530 nm. The reported data are the average of independent experiments and error bars correspond to standard deviations. The buffer solution for assays was 20 mM Tris-HCl pH 7.5, 150 mM NaCl, 1 mM EDTA, 5 mM dithiothreitol, and 10% (v/v) glycerol. The measurements were initiated at 40 μM of the protein, and then the sample was diluted successively by a factor of 2 with the buffer until the lowest protein concentration reached 9.7 nM. Fluorescent peptides were added to the protein samples at 4 nM, allowing establishment of the titration curve. Ligands, when added, were at final concentration of 80 μM.
# Binding affinities of the fluorescent peptides for hPPARγ LBD were measured in the presence or absence of ligands using a Safire2 microplate reader (TECAN). Fluorescent-labeled peptides were measured using an excitation wavelength of 470 nm; emission was measured at 530 nm. Data are the average of independent experiments and error bars correspond to standard deviations. The buffer solution for assays consisted of 20 mM Tris-HCl pH 7.5, 150 mM NaCl, 1 mM EDTA, 5 mM dithiothreitol, and 10% (v/v) glycerol. Measurements began at 40 μM of the protein, followed by successive two-fold sample dilutions with buffer, until reaching the lowest protein concentration (9.7 nM). Fluorescent peptides were added to the protein samples at 4 nM to allow the establishment of the titration curve. Added ligands were at a final concentration of 80 μM.
# Bcl-2 [5] = biological target: T1, Bcl-2; assay: Intrinsic tryptophan fluorescence quenching binding assay
# Description: Bcl-2 tryptophans were excited at 280 nM and the emission intensity was measured at 320 nM. 10 μM Bcl-2 was incubated with various dilutions of CoA for 10 min before measurement. The fluorescence emitted was monitored using a PheraStar fluorescence plate reader in 96-well plates. Change in tryptophan fluorescence occurs due to conformational change in the protein, when it is bound to the ligand and the difference in the fluorescence intensity was recorded and analyzed. Data were normalized, and Kd values were calculated by fitting to a Binding-Saturation single site model with GraphPad.
# Intrinsic tryptophan fluorescence quenching binding assay. Bcl-2 tryptophans were excited at 280 nM and the emission intensity was measured at 320 nM. 10 μM Bcl-2 was incubated with various dilutions of CoA for 10 min before measurement. Emitted fluorescence was monitored using a PheraStar fluorescence plate reader in 96-well plates. Change in tryptophan fluorescence occurs due to conformational changes in the protein when it is bound to the ligand; differences in the fluorescence intensity were recorded and analyzed. Data were normalized and Kd values were calculated by fitting to a Binding-Saturation single-site model with GraphPad.
# Target sequence in this assay (P10415 with tags, fused parts or gaps with the stated changes): as the sequence (P10415 with tags, fused parts or gaps with the stated changes, one chain of several) above
# [6] = biological target: T3, chimeric human Bcl-2 (with the internal loop 51-91 removed and residues 35-50 replaced by residues 33-48 of … (human; mouse, UniProt P10415 1-34; Q64373 33-48; P10415 92-207); assay: DSLS, aggregation temperature of 0.5 mg/mL Bcl-2 with 400 nM peptide (apo Bcl-2 56.85 ± 0.14)
# T3 construct: also called recombinant Bcl-2; Bc1-2
# [7] = biological target: T3, chimeric human Bcl-2 (with the internal …); assay: fluorescence anisotropy (FA), same experiment as FIG. 5(a), rounded
# [8] = biological target: T3, chimeric human Bcl-2 (with the internal …); assay: fluorescence anisotropy of labeled Bax-BH3 against Bcl-2 concentration, single binding site model
# [9] = biological target: T3, chimeric human Bcl-2 (with the internal …); assay: differential static light scattering (DSLS), aggregation temperature of 0.5 mg/ml Bcl-2
# [10] = biological target: T3, chimeric human Bcl-2 (with the internal …); assay: DSLS, aggregation temperature of 0.5 mg/mL Bcl-2 with 1 uM peptide (apo Bcl-2 56.85 ± 0.14); negative control
# T3 sequence (P10415 other isoform, or with tags, fused parts or gaps mutant limits assumed): as the sequence (P10415 with tags, fused parts or gaps with the stated changes, one chain of several) above
molecule,measurement,setting,value
CC(C)(COP(=O)(O)OP(=O)(O)OC[C@H]1O[C@@H](n2cnc3c(N)ncnc32)[C@H](O)[C@@H]1OP(=O)(O)O)[C@@H](O)C(=O)NCCC(=O)NCCS [Coenzyme A],displacement of Bax-BH3 from Bcl-2 (fluorescence anisotropy/polarization),Bcl-2 [1],did not reduce the FA; also recorded: without displacing Bax-BH3; also recorded: unable to displace
same,Tagg of Bcl-2,"Bcl-2 [2]; 0.5 mg/mL Bcl-2, 0.1 mM ligand",57.65 ± 0.19 °C
same,Tagg of Bcl-2,"Bcl-2 [2]; 0.5 mg/mL Bcl-2, 0.25 mM ligand",59.72 ± 1.011 °C
same,Tagg of Bcl-2,"Bcl-2 [2]; 0.5 mg/mL Bcl-2, 0.5 mM ligand",59.83 ± 0.21 °C
same,Tagg of Bcl-2,"Bcl-2 [2]; 0.5 mg/mL Bcl-2, 0.75 mM ligand",60.49 ± 0.46 °C
same,Tagg of Bcl-2,"Bcl-2 [2]; 0.5 mg/mL Bcl-2, 1 mM ligand",60.88 ± 0.46 °C
same,Tagg of Bcl-2,"Bcl-2 [2]; 0.5 mg/mL Bcl-2, 1.5 mM ligand",61.12 ± 0.58 °C
same,Tagg of Bcl-2,"Bcl-2 [2]; 0.5 mg/mL Bcl-2, 2 mM ligand",61.25 ± 0.66 °C
same,Tagg of Bcl-2,"Bcl-2 [2]; 0.5 mg/mL Bcl-2, 3 mM ligand",61.78 ± 0.45 °C
same,Tagg of Bcl-2 reached with increasing ligand concentrations,"Bcl-2 [2]; 0.5 mg/ml Bcl-2, increasing concentrations of CoA",up to 62 °C
same,Kd,"Bcl-2 [2]; DSLS thermal stability of Bcl-2, read-out: Kd from ΔTagg versus concentration, single binding site model",320 ± 130 µM
same,Tm of hPPARγ-LBD,hPPARγ-LBD [3]; 35 μM ligand,46.6 °C
same,Tm of hPPARγ-LBD,hPPARγ-LBD [3]; 70 μM ligand,46.5 °C
same,Tm of hPPARγ-LBD,hPPARγ-LBD [3]; 140 μM ligand,45.5 °C
same,Tm of hPPARγ-LBD,hPPARγ-LBD [3]; 280 μM ligand,41.7 °C
same,Tm of hPPARγ-LBD,hPPARγ-LBD [3]; 1400 μM ligand,27.5 °C
same,lowering of hPPARγ-LBD Tm compared to the apo-protein,hPPARγ-LBD [3]; seven molar excess of ligand,0.8 °C
same,Kd,hPPARγ-LBD [4],< 500 µM
same,nature of the ligand-hPPARγ-LBD interaction,hPPARγ-LBD [4]; inferred from effect on coactivator and corepressor binding,neutral antagonist
same,effect on affinity of hPPARγ-LBD for corepressors NCoR and SMRT,hPPARγ-LBD [4]; two to ten molar excess,lowered the affinity
same,effect on affinity of hPPARγ-LBD for the coactivator PGC1,hPPARγ-LBD [4]; two to ten molar excess (CD5577: two molar excess),lowered the affinity
same,Kd,"Bcl-2 [5]; 10 μM Bcl-2, increasing CoA concentrations, read-out: Kd from tryptophan fluorescence quenching, single binding site model",380 µM
same,Kd,"Bcl-2 [5]; summary value in discussion, read-out: Kd for recombinant Bcl-2 in vitro",~350 µM
"QDASTKKLSECLRRIGDELDSNMELQRMIAD [Bax-BH3 peptide, reference compound]",Tagg of Bcl-2,"Bcl-2 [2]; 0.5 mg/mL Bcl-2, 400 nM ligand",67.30 ± 1.02 °C
same,Tagg of Bcl-2,"Bcl-2 [2]; 0.5 mg/mL Bcl-2, 400 nM ligand, listed as Bax-BH3",67 °C
"LSDAMETSSLRDALE [scrambled LD4 peptide, scrambled version of the Bcl-2 ligand LD4, negative control, reference compound]",effect on Tagg of Bcl-2,"Bcl-2 [2]; 0.5 mg/ml Bcl-2, 1 μM peptide (negative control)",did not alter Tagg
B1,Tagg (° C.),[6],67.3 ° C.
same,Kd,[7],128 nM
same,Kd,[8],~128 nM
B2,binding result,[9],no binding (tested: 1 µM)
same,Tagg (° C.),[10],57 ° C.
